# Entries after “also recorded” stand apart in the source; their conditions may differ.
# Tests used:
# [1] = system: ovariectomy-induced (postmenopausal) obesity model; assay: Ovariectomy-induced obesity model; assay type: in vivo, female C57BL6 mice; conditions: OVX mice
# Procedure: For the ovariectomy-induced obesity model, 6 week old female C57BL6 mice were sham operated or ovariectomized and the study was carried out for 9 weeks as indicated above.
# Since it was shown that β-SERMs affected body composition in an animal model of high fat diet-induced obesity, they might also be effective in an animal model of postmenopausal obesity.
# ARPE-19 cells = assay: Fluorescent detection of intracellular ROS; assay type: cell-based, Human; conditions: 150 μM tBH
# From the text: Cells were allowed to adhere overnight. […] Removed and washed cells once with HBSS. […] Each drug concentration was done in triplicates.
# [2] = system: LPS induced THP-1 macrophage cell adhesion to bEND-3 endothelial cells; assay: Macrophage adhesion assay; assay type: cell-based
# Procedure: To determine the anti-inflammatory effects of ER-β NRBAs in vitro, a macrophage adhesion assay was performed. Macrophages adhere to endothelial cells due to elevated levels of pro-inflammatory cytokines. This principle was used in this assay to determine the effect of one of the ER-NRBAs on bacterial lipopolysaccharide (LPS) induced THP-1 macrophage cell adhesion to bEND-3 endothelial cells.
# [3] = system: MHC, phospho-ERK, MCIP-1 in left ventricle; assay: Angiotensin II model, markers of cardiac hypertrophy; assay type: in vivo, ovariectomized C57/BJ6 and ERβKO mice
# Procedure: (§1) Thirty, ten week old female ovariectomized C57/BJ6 mice, were obtained from Harlan/Sprague Dawley and were housed in 12 hour on/off lighting and fed rodent chow devoid of soy or most plant products. Ovariectomized ERβKO mice were obtained from Ken Korach, NIEHS. The ERβ mice were originally created by Drs. Smithies, Gustafsson, and colleagues. All mice were identically housed and fed the same chow.
# (§2) This pellet is well documented to produce physiological levels of E2 in the serum of mice.
# RT-PCR was accomplished using the following primers. GAPDH expression served as control gene for all studies. MCIP1, 5′-[…] and […]; GAPDH, 5′-[…] and […]. • For relative protein detection, immunoblots were carried out on protein extracted from the left ventricles of mice from all conditions, following separation by SDS-PAGE and transfer to nitrocellulose. Cardiac myosin heavy chain (MHC) and MCIP antibodies (ABCAM, Cambridge, Mass. and Santa Cruz Biotechnology Inc., Santa Cruz, Calif.), and brain natriuretic peptide (BNP) antibodies (Penninsula Labs, Mountain View, Calif.) were used.
# [4] = system: LNCaP prostate cancer cells; assay: 3H thymidine incorporation, LNCaP cells; assay type: cell-based; conditions: 6 days treatment
# Procedure: (§3) The effects of treatment of an ER-β selective NRBA of this invention on cancer cell proliferation was examined using LNCaP prostate cancer cells and C-26 colon cancer cells. LNCaP or C-26 cells were plated in growth medium in 24 well and 6 well plates, respectively. LNCaP cells were treated for 6 days and C-26 cells were treated for 3 days at the indicated concentration. ^3H thymidine incorporation was measured at the end of treatment as an indicator of cell proliferation.
# [5] = system: Ang II induced cardiac fibrosis; assay: Angiotensin II model, cardiac fibrosis; assay type: in vivo, ovariectomized C57/BJ6 and ERβKO mice
# Procedure: as §1, §2
# Left ventricular tissues were fixed in 4% paraformaldehyde solution. Paraffin-embedded tissue sections (5 um) were stained with Masson's trichrome for the presence of interstitial collagen fiber accumulation indicative of cardiac fibrosis. The ratio of interstitial fibrosis to the total left ventricular area was calculated from 10 randomly selected microscopic fields from each of five sections per heart using NIH imageJ analysis software (n=5 mice per condition). Further quantification of collagen deposition was made by ventricular content of hydroxyproline, a breakdown product of collagen, determined by a modified method of Bergman and Loxley (19). The ventricular tissues were homogenized and hydrolyzed in 6 N HCl at 110° C. for 24 h in a sealed reaction vial. The sample was dried and the residue re-suspended in sterile water. 0.5 ml of chloramine T was added for 5 min, then Ehrlich's reagent (3 ml) was added and the mixture left for 18 h at room temperature. The intensity of the red coloration that developed was measured by a spectrophotometer at 558 nm.
# C-26 colon cancer cells = assay: 3H thymidine incorporation, C-26 cells; assay type: cell-based; conditions: 3 days treatment
# Procedure: as §3
# [6] = system: receptors for progesterone, mineralocorticoids, androgens, glucocorticoids, FXR, PXR, LXR, RXR, PPAR-α, PPAR-γ and ERR-α, ERR-β and ERR-γ; assay: Transactivation assays for cross reactivity with 13 other NHR; assay type: cell-based; conditions: concentrations as high as 10 μM; data not shown
# [7] = biological target: ER-β ligand binding domain (LBD) (Homo sapiens (Human), UniProt Q92731); assay: Ligand binding assay of 14m and 12u, ER-β (Example 22A)
# Chain of ER-β ligand binding domain (LBD) (Q92731 264-498, species assumed): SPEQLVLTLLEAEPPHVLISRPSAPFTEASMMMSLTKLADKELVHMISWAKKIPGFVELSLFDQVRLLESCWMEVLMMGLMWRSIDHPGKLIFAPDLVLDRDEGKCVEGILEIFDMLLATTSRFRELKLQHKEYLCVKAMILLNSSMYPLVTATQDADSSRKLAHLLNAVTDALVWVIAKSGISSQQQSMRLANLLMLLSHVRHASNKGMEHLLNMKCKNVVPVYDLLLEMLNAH
# [8] = system: genes implicated in lipogenesis, lypolysis, anti-oxidant and other related pathways; assay: TaqMan PCR gene expression arrays on tissues of high fat diet mice; assay type: in vivo, C57BL6 male mice
# From the text: RNA extracted from WAT, BAT, liver and muscle were reverse transcribed using cDNA synthesis kit (Applied biosystems, Foster city, CA).
# RNA from liver, muscle, WAT and BAT were applied to these arrays.
# [9] = Brown Adipose Tissue, vs high fat diet vehicle, >2-fold, p<0.01
# [10] = Liver, vs high fat diet vehicle, >2-fold, p<0.01
# [11] = White Adipose Tissue, vs high fat diet vehicle, >2-fold, p<0.01
compound,measurement,setting,value
"O=c1c2c(O)cc(O)cc2c(Br)cn1-c1ccc(O)cc1 [12u, 4-bromo-6,8-dihydroxy-2-(4-hydroxyphenyl)isoquinolin-1(2H)-one]",Body weight gain,[1],did not inhibit body weight gain
same,Fat mass (MRI),[1],completely prevented the increase in fat mass
same,Feed consumption,[1],increased the feed consumption
same,Lean mass (MRI),[1],significantly increased lean mass
same,Uterine weight,[1],without affecting uterine weight
same,WAT weight,[1],completely inhibited the WAT
same,Prevention of ROS formation / oxidative stress,ARPE-19 cells,did not seem to have any effect
same,Adhesion of 3H labeled THP-1 cells to bEND-3 cells,[2],significantly inhibited
same,Ang II induced elevations in phospho-ERK (p-ERK),[3]; wildtype animals,partially prevented
same,MCIP-1 levels,"[3]; wildtype mice, irrespective of Ang II treatment",robustly elevated MCIP-1 levels
same,Growth of LNCaP prostate cancer cells,[4],significantly inhibited
same,Ventricular hydroxyproline content,"[5]; WT mice, not ERβKO",significantly inhibited the hydroxyproline content
same,Ang II induced cardiac fibrosis (interstitial collagen),[5]; only in WT mice,significantly inhibited fibrosis; also recorded: prevented
same,Growth of C-26 colon cancer cells,C-26 colon cancer cells,significantly inhibited
same,Cross reactivity with 13 other NHR,[6],did not cross react
"N#Cc1cn(-c2ccc(O)cc2)c(=O)c2c(O)cc(O)cc12 [14m, 6,8-dihydroxy-2-(4-hydroxyphenyl)-1-oxo-1,2-dihydroisoquinoline-4-carbonitrile]",Ki,[7],5.35 nM
same,"High fat diet increase in expression of lipogenesis genes (LPL, FASN, SREBP-1, PLTP, Dhcr24)",[8]; BAT and WAT,reversed
same,Ddit3 gene expression Increase/Decrease,[8]; [9],Decrease
same,Dhcr24 gene expression Increase/Decrease,[8]; [9],Decreased
same,ER-β gene expression Increase/Decrease,[8]; [9],Increased
same,GPx-3 gene expression Increase/Decrease,[8]; [9],Increase
same,LPL gene expression Increase/Decrease,[8]; [9],Decrease
same,PLTP gene expression Increase/Decrease,[8]; [9],Decrease
same,UCP-1 gene expression Increase/Decrease,[8]; [9],increase in UCP-1 gene expression; also recorded: Increased
same,CIDEA gene expression Increase/Decrease,[8]; [10],Decrease
same,GPx-3 gene expression Increase/Decrease,[8]; [10],Increase
same,Ddit3 gene expression Increase/Decrease,[8]; [11],Decrease
same,FASN gene expression Increase/Decrease,[8]; [11],Decrease
same,LPL gene expression Increase/Decrease,[8]; [11],Decrease
same,SREBP1 gene expression Increase/Decrease,[8]; [11],Decrease
same,Cross reactivity with 13 other NHR,[6],did not cross react
